Assay results: PMC9290910, “Neuropilin‐1 is required for endothelial cell adhesion to soluble vascular endothelial growth factor receptor 1” (The Febs Journal, 2021)
Entries after “also recorded” stand apart in the source; their conditions may differ.

What was measured:
[1] = biological target: T1, NRP‐1/VEGFR‐1 interaction (Homo sapiens, UniProt O14786); test: SPR, inhibition of NRP‐1/VEGFR‐1 interaction; assay type: binding; conditions: in words, NRP‐1 immobilized, VEGFR‐1 5 nM
T1 construct: purchased R&D Systems 3870-N1 (NRP-1); 321-FL-050 (VEGFR-1/Fc)
T1 sequence (O14786 22-644 isoform O14786-2 limits assumed): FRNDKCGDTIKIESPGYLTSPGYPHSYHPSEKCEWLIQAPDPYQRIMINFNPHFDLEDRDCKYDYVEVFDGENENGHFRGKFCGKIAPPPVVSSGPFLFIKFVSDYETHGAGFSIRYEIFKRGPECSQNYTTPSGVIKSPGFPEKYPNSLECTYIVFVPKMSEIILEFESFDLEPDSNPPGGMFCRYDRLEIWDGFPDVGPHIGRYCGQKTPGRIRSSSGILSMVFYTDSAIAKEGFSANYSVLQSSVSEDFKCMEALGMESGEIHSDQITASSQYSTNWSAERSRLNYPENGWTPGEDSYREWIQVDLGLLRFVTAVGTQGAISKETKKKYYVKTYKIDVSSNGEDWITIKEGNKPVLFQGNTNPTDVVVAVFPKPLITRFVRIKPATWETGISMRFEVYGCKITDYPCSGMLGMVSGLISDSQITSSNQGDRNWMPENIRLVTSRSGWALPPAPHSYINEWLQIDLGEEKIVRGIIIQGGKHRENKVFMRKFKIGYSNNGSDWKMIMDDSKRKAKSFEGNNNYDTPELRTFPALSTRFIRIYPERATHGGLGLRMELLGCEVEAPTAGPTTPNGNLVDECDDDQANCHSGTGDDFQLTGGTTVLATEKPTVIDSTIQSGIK
Experimental: Fig. 2 Flt2‐11 peptide inhibits NRP‐1 binding to VEGFR‐1. SPR analysis of the interaction between VEGFR‐1 and NRP‐1 in peptide absence (A), or presence of Flt2‐11 peptide (B) or scrambled Flt2‐11 peptide (C). NRP‐1 is immobilized on the sensor chip. (A) VEGFR‐1 is injected at different concentrations (from bottom to top: 0.6 nM, cyan; 1 nM, red; 2 nM, green; 2.5 nM, blue; and 5 nM, black). […] (B) VEGFR‐1 is injected at 5 nM together with peptide Flt2‐11 at different concentrations (from top to bottom: 0, black; 5 nM, blue; 15 nM, green; 45 nM, red; 100 nM, cyan; and 800 nM, magenta). […] (C) VEGFR‐1 is injected at 5 nM together with ‘scrambled’ Flt2‐11 peptide at different concentrations (from top to bottom: 0, black; 0.5 μM, blue; 950 μM, geen; and […], red).
SPR experiments were carried out using a BIACORE X system (Biacore AB, Uppsala, Sweden). […] The reaction was carried out in 20 mM sodium acetate at pH 5.0, which is about 2 points below the theoretical NRP‐1 isoelectric point calculated using the program pI‐tool. […]
RU express the mass concentration‐dependent changes in the observed SPR signal, that is, the refractive index on the sensor chip surface. Changes in this signal are determined by the interaction between the immobilized protein (i.e., either NRP‐1 or VEGFR‐1) with the analyte protein (i.e., VEGFR‐1/Fc, α5β1 integrin or semaphorin 3A). […]

[2] = system: EC (HUVEC) adhesion to sVEGFR‐1; test: Cell adhesion assay, EC adhesion to sVEGFR‐1; assay type: cell-based, human; conditions: for effect on EC adhesion to sVEGFR‐1: peptide 20 µg·mL^−1 during adhesion, 37 °C, 1 h, 20 µg·mL^−1 VEGFR‐1/Fc coating, crystal violet, 540 nm, triplicate
Experimental: (§1) Human umbilical vein endothelial cells (HUVEC) were isolated from freshly delivered umbilical cords, as previously described, cultured in Endothelial Cell Growth Medium‐2 Kit from Clonetics (EGM‐2, CC4176, Lonza, Basel, Switzerland), and used up to passage 6. For functional assays, HUVEC were resuspended in Endothelial Basal Medium‐2 (EBM‐2, CC3156, Lonza). A pool of cells derived from four different individuals was used.
(§2) Solid support for adhesion assay was prepared by incubating immunological 96‐multiwell plates with 20 µg·mL^−1 VEGFR‐1/Fc chimera, or fibronectin solubilized in PBS. After 2 h, the coating solution was removed, and the well surface was blocked with 3% BSA in PBS for 18 h, before plating ECs in serum‐free medium at 3 × 10^4 cells per well. After incubation at 37 °C for 1 h, the wells were washed with PBS and attached cells were fixed with 3% formaldehyde and stained with 0.5% crystal violet. Attachment efficiency was determined by quantitative dye extraction and spectrophotometric measurement of the absorbance at 540 nm, using a Microplate reader 3550‐UV (Bio‐Rad). In competition experiments, peptides Flt2‐11, scrambled Flt2‐11, Flt2‐8 or Flt2‐5, at 20 µg·mL^−1, were added during the adhesion assay. Adhesion to peptide 12 was carried out by using maleic anhydride activated microplates (Reacti‐Bind, Pierce, Rockford, IL, USA) coated with 500 µg·mL^−1 of the peptide.

[3] = system: EC (HUVEC) adhesion to fibronectin; test: Cell adhesion assay, EC adhesion to fibronectin; assay type: cell-based, human
Experimental: as §1, §2

[4] = system: HUVEC migration towards sVEGFR‐1; test: Migration assay (Boyden chamber) towards sVEGFR‐1; assay type: cell-based, human; conditions: peptide 40 µM, 30 min preincubation; sVEGFR‐1 5 µg·mL^−1; 2 h, 37 °C; triplicate
Experimental: as §1
Cell migration was analysed using Boyden chambers equipped with 8 µm pore diameter polycarbonate filters (Nuclepore, Whatman Incorporated, Clifton, NJ, USA). Human sVEGFR‐1 stimulus (5 µg·mL^−1) for chemotaxis was added to the lower chamber and HUVEC (1.5 × 10^5) were loaded into the upper chamber. […] Cells were then loaded into the Boyden chambers without removing the peptides, and migration towards sVEGFR‐1 was analysed. […] Cells from the upper surface were removed by wiping with a cotton swab, and the chemotactic response was determined by counting the migrating cells attached to the lower surface of the filter in 12 randomly selected microscopic fields (×200 magnification) per experimental condition. Quantification was performed by two independent observers, blinded to the examined condition.

[5] = biological target: T2, Recombinant human NRP‐1 (human, UniProt O14786 22-856); test: SPR; competition: NRP-1 immobilised by amine coupling; protein analyte at a fixed concentration (VEGFR-1/Fc 5 nM; α5β1 integrin 200 nM; semaphorin 3A 200 nM) injected together with peptide at different concentrations; HEPES-buffered saline; conditions: both partners purified
T2 construct: Neuropilin-1, human, recombinant soluble protein; see the vendor's datasheet (as far as I recall an extracellular fragment with a C-terminal His tag); also called Neuropilin‐1; soluble NRP‐1; source: bought: R&D Systems (3870‐N1)
T2 sequence (looked up): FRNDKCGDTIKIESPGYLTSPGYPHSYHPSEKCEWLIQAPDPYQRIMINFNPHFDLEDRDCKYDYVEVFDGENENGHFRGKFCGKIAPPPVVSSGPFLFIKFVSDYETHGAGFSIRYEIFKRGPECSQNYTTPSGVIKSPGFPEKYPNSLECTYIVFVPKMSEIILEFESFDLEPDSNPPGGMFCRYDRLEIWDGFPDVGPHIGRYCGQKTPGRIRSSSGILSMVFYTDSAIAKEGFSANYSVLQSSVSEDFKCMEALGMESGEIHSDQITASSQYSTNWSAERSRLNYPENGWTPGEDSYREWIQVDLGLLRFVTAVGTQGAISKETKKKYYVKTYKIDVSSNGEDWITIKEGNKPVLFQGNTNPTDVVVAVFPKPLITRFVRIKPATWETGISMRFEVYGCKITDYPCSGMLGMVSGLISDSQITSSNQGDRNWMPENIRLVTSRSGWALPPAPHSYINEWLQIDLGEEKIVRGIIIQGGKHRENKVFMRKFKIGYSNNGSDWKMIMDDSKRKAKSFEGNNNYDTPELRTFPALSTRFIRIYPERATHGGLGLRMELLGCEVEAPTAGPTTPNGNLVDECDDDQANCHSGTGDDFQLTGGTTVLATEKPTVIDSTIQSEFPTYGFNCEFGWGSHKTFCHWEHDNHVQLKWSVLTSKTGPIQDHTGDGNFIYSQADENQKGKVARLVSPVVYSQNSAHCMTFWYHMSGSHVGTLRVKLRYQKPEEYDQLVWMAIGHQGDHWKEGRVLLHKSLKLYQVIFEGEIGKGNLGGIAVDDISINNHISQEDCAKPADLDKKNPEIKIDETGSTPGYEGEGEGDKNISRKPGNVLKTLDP

[6] = ECs pretreated with soluble NRP‐1

LVPLKIKNTFT [scrambled Flt2‐11, containing the same residues as Flt2‐11 but in a different order, reference compound]
effect on NRP‐1/VEGFR‐1 (sVEGFR‐1) interaction [1]: had no effect on NRP‐1/VEGFR‐1 interaction; also recorded: inhibits NRP‐1/VEGFR‐1 interaction only at high concentrations | effect on EC adhesion to sVEGFR‐1 [2]: does not affect EC adhesion | effect on EC adhesion to fibronectin ([3]; peptide 20 µg·mL^−1 during adhesion, 37 °C, 1 h, 20 µg·mL^−1 fibronectin coating, crystal violet, 540 nm, triplicate): does not affect EC adhesion

NITVT [Flt2‐5, Flt2‐11 peptide variant comprising the first five N‐terminal residues]
effect on NRP‐1/VEGFR‐1 (sVEGFR‐1) interaction [1]: inhibiting NRP‐1/sVEGFR‐1 interaction as well | effect on EC adhesion to sVEGFR‐1 [2]: same ability as the parent Flt2‐11 peptide to inhibit cell adhesion to; also recorded: able to significantly inhibit EC adhesion; also recorded: efficacy comparable to that of the parent eleven‐residue Flt2‐11 peptide | effect on EC migration towards sVEGFR‐1 [4]: same ability as the parent Flt2‐11 peptide to inhibit cell adhesion to, and migration towards, sVEGFR‐1; also recorded: migration towards, sVEGFR‐1 (Fig. 6C), to a similar extent as the Flt2‐11 peptide; also recorded: efficacy comparable to that of the parent eleven‐residue Flt2‐11 peptide

soluble NRP‐1: Recombinant human NRP‐1 (3870‐N1), R&D Systems
effect of soluble NRP‐1 on EC adhesion to sVEGFR‐1 [2, 6]: not detectably altered | effect of soluble NRP‐1 on EC adhesion to sVEGFR‐1 ([2]; soluble NRP‐1 on coated plates prior to EC addition): impaired | effect of soluble NRP‐1 on EC adhesion to fibronectin [3, 6]: not detectably altered

B1: Flt_(2‐11) peptide (peptide)
peptide: NITVTLKKFPL
notes: Unlabelled peptide, as co-injected in the SPR experiments; also called peptide Flt_(2‐11); source: synthetic peptide (Primm, Milan)
Ki [5]: 20 nM
